Among the data in the supplement of paper PMC10307832 are relative viability values, retold here.

What all share (test): relative viability (nuclei count vs DMSO), 5 days (fraction); higher = more cells survive
Compound in assay [1]: O=C(C[C@H]1NCCC[C@@H]1O)Cn1cnc2cc(Br)c(Cl)cc2c1=O (racemic) [Halofuginone] + CS(=O)(=O)N1CCN(Cc2cc3nc(-c4cccc5[nH]ncc45)nc(N4CCOCC4)c3s2)CC1 [Pictilisib] (partner 1 µM)
In a few lines: (§1)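 For relative viability, nuclei counts in treated wells were divided by those in vehicle wells. Lung cancer cell lines had been pin-tool dosed in 1536-well plates the day after seeding and cultured for 5 days, then fixed and stained in one step (final 0.05% Triton X-100, 1% formaldehyde, 1 ug/ml Hoechst) and imaged at 4×. Doses were one drug alone or a fixed anchor-drug dose plus five library-drug doses (not always all listed) in √10 steps, and values are duplicate-plate medians.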

Compound in the assay “Decitabine + Luminespib”: Nc1ncn([C@H]2C[C@H](O)[C@@H](CO)O2)c(=O)n1 [Decitabine] + CCNC(=O)c1noc(-c2cc(C(C)C)c(O)cc2O)c1-c1ccc(CN2CCOCC2)cc1 [Luminespib] (partner 0.01 µM)
In a few lines:
as §1

Compound in the assay “Decitabine + Crizotinib”: Nc1ncn([C@H]2C[C@H](O)[C@@H](CO)O2)c(=O)n1 [Decitabine] + C[C@@H](Oc1cc(-c2cnn(C3CCNCC3)c2)cnc1N)c1c(Cl)ccc(F)c1Cl [Crizotinib] (partner 1 µM)
In a few lines: as §1

Compound in the assay “Cediranib + OSI-027”: COc1cc2c(Oc3ccc4[nH]c(C)cc4c3F)ncnc2cc1OCCCN1CCCC1 [Cediranib] + COc1cccc2cc(-c3nc([C@H]4CC[C@H](C(=O)O)CC4)n4ncnc(N)c34)[nH]c12 [OSI-027] (partner 0.5 µM)
A digest of the protocol: as §1

For the cell line UMC-11, the relative viability in assay [1] (first compound 0.001 µM) was determined as 0.9; in assay [1] (first compound 0.003162 µM), 0.76; in assay [1] (first compound 0.01 µM), 0.772; in assay [1] (first compound 0.03162 µM) it was 0.758; in assay [1] (first compound 0.1 µM), 0.648; in the assay with Decitabine + Luminespib (first compound 0.04 µM) it was 0.935. Also, the relative viability came out at 0.773 in the assay with Decitabine + Luminespib (first compound 0.1265 µM); 0.559 with Decitabine + Luminespib (first compound 0.4 µM); 0.382 with Decitabine + Luminespib (first compound 1.265 µM); 0.372 with Decitabine + Luminespib (first compound 4 µM); 0.483 with Decitabine + Crizotinib (first compound 0.04 µM); 0.451 in the assay with Decitabine + Crizotinib (first compound 0.1265 µM). The relative viability was found to be 0.398 with Decitabine + Crizotinib (first compound 0.4 µM); 0.209 with Decitabine + Crizotinib (first compound 1.265 µM); 0.168 with Decitabine + Crizotinib (first compound 4 µM); 0.461 in the assay with Cediranib + OSI-027 (first compound 0.04 µM); 0.473 with Cediranib + OSI-027 (first compound 0.4 µM); 0.488 with Cediranib + OSI-027 (first compound 4 µM).
